Each block holds one molecule with its values, some of them ahead of it. Where a SMILES comes first, the peptide text is derived from it. [ ]: non-standard residue; d: D form. The star is where a group is joined. Octanoyl = CCCCCCCC(=O)*; Dap = NC[C@H](N)C(=O)O
Columns and labels:
mouse GOAT = biological target: T1, mouse GOAT (Mus musculus, UniProt P0C7A3); experiment: In vitro octanoylation assay: [3H]octanoyl transfer from octanoyl CoA to proghrelin-His8 by membranes of Sf9 cells expressing GOAT; assay type: biochemical; conditions: for GOAT inhibitory activity/potency compared with BK1114 / GOAT inhibitory activity compared with PH1147: concentration not given; for inhibition of GOAT activity at high concentration: 500 μM; for inhibition of GOAT activity at high concentration / IC50 / dose response inhibition of GOAT activity in vitro: Sf9 membranes; for inhibition of GOAT activity at high concentration / IC50: mouse GOAT; for IC50: read-out: IC50 for GOAT inhibition in vitro; for dose response inhibition of GOAT activity in vitro: mouse His10-GOAT, 3% DMSO; for GOAT inhibition in vitro compared with PH1147: 100 μM concentration; for inhibition of GOAT activity (qualitative): all concentrations tested / concentration not stated
T1 construct: made in house; host or cells: Sf9 insect cells (baculovirus); crude membrane fraction used
T1 sequence (P0C7A3 1-435): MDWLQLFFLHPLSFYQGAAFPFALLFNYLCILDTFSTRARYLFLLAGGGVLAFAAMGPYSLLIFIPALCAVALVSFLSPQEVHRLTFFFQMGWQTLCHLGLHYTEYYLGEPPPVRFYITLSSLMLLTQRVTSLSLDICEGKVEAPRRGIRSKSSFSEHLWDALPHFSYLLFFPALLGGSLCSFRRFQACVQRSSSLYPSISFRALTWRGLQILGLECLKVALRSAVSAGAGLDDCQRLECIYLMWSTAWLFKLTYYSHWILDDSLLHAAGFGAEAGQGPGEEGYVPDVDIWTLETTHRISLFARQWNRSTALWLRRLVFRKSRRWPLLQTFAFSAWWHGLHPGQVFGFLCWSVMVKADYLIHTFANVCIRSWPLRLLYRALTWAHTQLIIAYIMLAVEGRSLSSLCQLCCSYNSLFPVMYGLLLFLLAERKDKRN
Procedure: The assay we used is described in copending U.S. Ser No. 12/167,917, filed: Jul. 3, 2008. For baculoviral infection of insect cells, mouse GOAT cDNA was inserted into pFastBac HT-A (His10-tag) (Invitrogen), and baculovirus was generated. Sf9 insect cells were cultured, set up on day 0 at a density of 5×10^5 cells/ml, and infected on day 1 with baculovirus encoding His 10-GOAT at a density of 1×10^6 cells/ml. Cells were harvested 48 h post-infection and washed once with phosphate-buffered saline.
Each pellet of Sf9 cells (obtained from 1 liter of cell culture) was disrupted with a Dounce homogenizer (40 strokes) on ice in 50 ml of buffer containing 50 mM Tris-Cl (pH 7.0), 150 mM NaCl, 1 mM sodium EDTA, 1 mM dithiothreitol, 100 μM bis(4-nitrophenyl) phosphate, 2.5 μg/ml aprotinin, 20 μg/ml phenylmethylsulfonyl fluoride, 10 μg/ml leupeptin, and 10 μg/ml pepstatin A. After an initial centrifugation at 3,000 g for 5 min at 4° C., the supernatant was further centrifuged at 100,000 g for 30 min at 4° C. to obtain a membrane fraction, which was stored at −80° C. until the time of assay. Just prior to assay, the membranes were suspended in 50 mM HEPES-NaOH (pH 7.0) and then passed through a 22-gauge needle 10 times. After centrifugation at 1,000 g for 1 min to remove aggregated materials, the supernatant (hereafter referred as membranes) was used for assays.
Unless otherwise stated, the standard assay mixture contained 50 mM HEPES-NaOH (pH 7.0), 50 μM palmitoyl CoA or myristyl ether CoA, 50 μg membrane protein, 5 μg recombinant wild type or mutant versions of proghrelin-His8 and 1 μM [^3H]octanoyl CoA (11 dpm/fmol) in a final volume of 50 μl. […] The columns were washed at room temperature with 1 ml of buffer A followed by 3 ml of buffer A containing 25 mM imidazole. The His-tagged proghrelin was then eluted with 1 ml of buffer A containing 250 mM imidazole. Radioactivity present in the 250 mM-imidazole eluate was quantified by liquid scintillation counting.
Compounds PH1147-1152 were screened for GOAT inhibition in vitro using membrane fractions prepared from Sf9 insect cells infected with baculovirus encoding mouse GOAT. The assay (described in U.S. Ser. No. 12/167,917) measures the extent of specific acyl transfer from tritiated octanoyl CoA to recombinant His-tagged proghrelin. […] PH1147 was the simplest molecule in the set and lacked motifs present in the more complex analogs intended to be Ser2 and/or Phe4 mimetics.
(§1) Inhibition of GOAT activity by [Dap^3]octanoyl-ghrelin (1-5)-NH2 peptide and BK1114. Membranes from Sf9 cells infected with baculovirus encoding mouse His10-GOAT were prepared as previously described (Yang J, Zhao T J, Goldstein J L, Brown M S. 2008 PNAS, 105: 10750-10755). Each 50-μl reaction mixture contained 50 μg of membrane protein, 5 μg of proghrelin-His8, 50 μM palmitoyl CoA, 1 μM http[^3H]octanoyl CoA (11 dpm/fmol), and the experimental concentrations of peptide or compound in a final concentration of 3% (vol/vol) DMSO. Control values were established which represent the amount of [3H]octanoyl proghrelin formed in the absence of compound.
as §1, with “the synthetic compounds, BK1114, BK1176, BK1177” for “[Dap^3]octanoyl-ghrelin (1-5)-NH2 peptide”, “BK1183.” for “BK1114.”, “et al., 2008, supra).” for “J, Zhao T J, Goldstein J L, Brown M S. 2008 PNAS, 105: 10750-10755).”, “[^3H]octanoyl” for “http[^3H]octanoyl”, “the” for “peptide or”

GOAT = biological target: T2, GOAT (Mus musculus, UniProt P0C7A3); experiment: Inhibition of GOAT activity in intact INS-1 cells co-expressing preproghrelin and GOAT (anti-ghrelin immunoblot); assay type: cell-based, Rat; conditions: 5 to 10 to 20 to 50 uM inhibitor, 24 h
T2 construct: expressed in transfected cells; host or cells: rat INS-1 cells stably co-expressing preproghrelin (pCMV-preproghrelin) and GOAT-T7 (pEF-GOAT-T7)
T2 sequence (P0C7A3 1-435): T1 sequence (P0C7A3 1-435)
Procedure: A stably transfected INS-1 cell line co-expressing preproghrelin and GOAT was established as described below. On day 0, cells were set up at a density of 1.5×10^6/100-mm dish in medium A (RPMI-1640 medium supplemented with 10 mM HEPES, 50 μM β-mercaptoethanol, 100 U/ml penicillin, and 100 μg/ml streptomycin) containing 10% (v/v) FCS. On day 2, fresh medium was added. On day 4, the cells received a direct addition of the indicated concentration of BK1114 delivered in DMSO. The final concentration of DMSO in each dish was 0.5%. 24 h after treatment, two dishes of cells from each condition were harvested and pooled, after which peptides were extracted from the cells, fractioned on reverse-phase chromatography, and subjected to immunoblot analysis with a 1:1000 dilution of rabbit anti-ghrelin antibody as previously described (Yang J, Brown M S, Liang G, Grishin N V, Goldstein J L (2008) Identification of the acyltransferase that octanoylates ghrelin, an appetite-stimulating peptide hormone. Cell 132:387-39). Films were exposed for 1 min.
Stably transfected cell line co-expressing preproghrelin and GOAT. Rat INS-1 cells were grown in monolayer at 37° C. in 8.8% CO2 as previously described (Id.). […] Expression of proghrelin and ghrelin was assessed by immunoblot analysis. […] Expression of GOAT-T7 was assessed by immunoblot analysis.

SMILES: CCCCCCCC(O)(/C=C/[C@H](NC(=O)OCc1ccccc1)C(=O)OC)CCC (stereo partly shown) [BK1165]
GOAT inhibitory activity/potency compared with BK1114 (mouse GOAT): without compromising activity

SMILES: CCCCCCCC(O)/C=C/[C@H](NC(=O)C(F)(F)F)C(=O)OC (stereo partly shown) [BK1112]
GOAT inhibitory activity compared with PH1147 (mouse GOAT): not helpful

SMILES: CCCCCCCC(=O)NC[C@H](NC(=O)[C@H](CO)NC(=O)CN)C(=O)N[C@@H](Cc1ccccc1)C(=O)N[C@@H](CC(C)C)C(N)=O [Structure 2, [Dap^3]octanoyl-ghrelin (1-5)-NH2, reference compound] (H-GS[Dap](Octanoyl)FL-NH2)
IC50 (mouse GOAT): ~1.5 µM | dose response inhibition of GOAT activity in vitro (mouse GOAT): dose response inhibition

SMILES: CCCCCCCC(C)(O)/C=C/[C@H](NC(=O)OCc1ccccc1)C(=O)N[C@@H](Cc1ccccc1)C(=O)N[C@@H](CC(C)C)C(N)=O (stereo partly shown) [BK1129]
GOAT inhibitory activity/potency compared with BK1114 (mouse GOAT): Neither was as effective as BK1114

SMILES: CCCCCCCC(=O)NC[C@H](NC(=O)OCc1ccccc1)C(=O)OC [LN1111622]
GOAT inhibitory activity/potency compared with BK1114 (mouse GOAT): does not perform as well as BK1114

SMILES: CCCCCCCC(C)(O)/C=C/C(NC(=O)OCc1ccccc1)C(=O)OC (stereo not shown) [BK1114]
dose response inhibition of GOAT activity in intact cells (GOAT): dose inhibition response | GOAT inhibition in vitro compared with PH1147 (mouse GOAT): roughly twice as efficacious as PH1147 | dose response inhibition of GOAT activity in vitro (mouse GOAT): dose response inhibition

SMILES: CCC(C)(O)/C=C/[C@H](NC(=O)OCc1ccccc1)C(=O)OC (stereo partly shown) [BK1095]
inhibition of GOAT activity (qualitative) (mouse GOAT): little inhibition

SMILES: CCCCCCCC(O)CC[C@@H](CO)NC(=O)[C@H](C)NC(=O)CNC (stereo partly shown) [PH1167]
GOAT inhibitory activity compared with PH1147 (mouse GOAT): neither PH1159 nor PH1167 possessed activity comparable to PH1147

SMILES: CCCCCCCC(C)(O)/C=C/[C@H](NC(=O)C(C)(C)CO)C(=O)N[C@@H](Cc1ccccc1)C(=O)N[C@@H](CC(C)C)C(N)=O (stereo partly shown) [BK1141]
inhibition of GOAT activity (qualitative) (mouse GOAT): retains some activity

SMILES: CCCCCCCC(C)(O)/C=C/[C@@H](NC(=O)OCc1ccccc1)C(=O)OC (stereo partly shown) [BK1149]
GOAT inhibitory activity/potency compared with BK1114 (mouse GOAT): comparable to BK1114

SMILES: CCCCCCCC(C)(O)/C=C/[C@H](NC(=O)C(C)(C)CO)C(=O)OC (stereo partly shown) [BK1137]
inhibition of GOAT activity (qualitative) (mouse GOAT): essentially inactive

More lines, now with the values ahead:

inhibition of GOAT activity at high concentration (mouse GOAT): inhibited GOAT activity
SMILES: CCCCCCCC(O)CC[C@H](NC(=O)CC(C)(C)O)C(=O)OC (stereo partly shown) [PH1149]

GOAT inhibitory activity/potency compared with BK1114 (mouse GOAT): do not improve activity
SMILES: CCCCCCCC(C)(O)/C=C/[C@H](NC(=O)OCc1ccccc1)C(=O)NC(C)C (stereo partly shown) [PH1176a]

inhibition of GOAT activity at high concentration (mouse GOAT): inhibited GOAT activity
SMILES: CCCCCCCC(O)CC[C@H](NC(=O)C(C)(C)CO)C(=O)OC (stereo partly shown) [PH1150]

GOAT inhibition in vitro compared with PH1147 (mouse GOAT): comparably to PH1147 | GOAT inhibition at higher concentrations (mouse GOAT; concentrations higher than 100 μM, compared with PH1147): performed more poorly
SMILES: CCCCCCCC(=O)CC[C@H](NC(=O)OCc1ccccc1)C(=O)OC [PH1154a]

inhibition of GOAT activity at high concentration (mouse GOAT): greatest inhibition | IC50 (mouse GOAT): ~90 µM
SMILES: CCCCCCCC(O)/C=C/[C@H](NC(=O)OCc1ccccc1)C(=O)OC (stereo partly shown) [PH1147]

GOAT inhibitory activity/potency compared with BK1114 (mouse GOAT): do not improve activity
SMILES: CCCCCCCC(C)(O)C/C=C(/NC(=O)OCc1ccccc1)C(=O)NC(C)C (stereo not shown) [PH1176b]

— patent US8329745B2, “Small molecule inhibitors of ghrelin O-acyltransferase” (Board of Regents, The University of Texas System, priority 2008, dated 2012)
